The source of these data is US11117926B2, “Cholane derivatives for use in the treatment and/or prevention of FXR and TGR5/GPBAR1 mediated diseases” (BAR PHARMACEUTICALS S.R.L., priority 2014, dated 2021).

Where a name gives a salt, the structure may show the parent alone.

Experiment [1] addresses T1, human GPBAR1 (Homo sapiens, UniProt Q8TDU6).
T1 construct: expressed in transfected cells; host or cells: HEK-293T
T1 sequence (Q8TDU6 1-330): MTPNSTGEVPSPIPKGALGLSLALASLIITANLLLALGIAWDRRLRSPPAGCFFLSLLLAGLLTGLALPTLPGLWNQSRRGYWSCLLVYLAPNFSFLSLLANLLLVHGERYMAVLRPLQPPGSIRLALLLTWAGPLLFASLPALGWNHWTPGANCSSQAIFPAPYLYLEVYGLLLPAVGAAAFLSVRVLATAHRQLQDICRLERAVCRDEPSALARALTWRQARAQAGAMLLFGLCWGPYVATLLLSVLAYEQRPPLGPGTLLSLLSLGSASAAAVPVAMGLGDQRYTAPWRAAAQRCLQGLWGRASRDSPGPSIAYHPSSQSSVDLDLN
Nature of the experiment: GPBAR1 mediated transactivation (CRE luciferase reporter) in transfected HEK-293T cells. Format: cell-based. The following applies: each compound at 10 microM, transactivation activity of TLCA on CRE = 100%. On the procedure:
(§1) Each compound was tested at the concentration of 10 microM and transactivation activity of CDCA on FXR and TLCA on CRE (i.e. TGR5/GPBAR1) was considered equal to 100%.
(§2) Biological Activities. Activity of selected compounds was tested in vitro using a whole cell model transfected with a reporter genes to establish selectivity of compounds shown in table 1 toward FXR and TGR5/GPBAR1 in comparison with chenodeoxycholic acid (CDCA) and TLCA. CDCA is a primary bile acid that functions as an endogenous ligand for FXR, while TLCA is a physiological ligand for TGR5/GPBAR1. In this assay, HepG2 cells (a liver-derived cell line) were cultured at 37° C. in minimum essential medium with Earl's salts containing 10% fetal bovine serum (FBS), 1% L-glutamine, and 1% penicillin/streptomycin. […] The transfection experiments were performed using Fugene HD according to manufactured specifications. Cells were plated in a 24-well plate at 5×10^4 cells/well. For FXR mediated transactivation, HepG2 cells were transfected with 100 ng of pSG5-FXR, 100 ng of pSG5-RXR, 100 ng of pGL4.70 a vector encoding the human Renilla gene and 250 ng of the reporter vector p(hsp27)-TK-LUC containing the FXR response element IR1 cloned from the promoter of heat shock protein 27 (hsp27).
(§3) At 24 h post-transfection, cells were stimulated for 18 h with 10 μM TLCA as a control agent or putative GPBAR1 agonists as the same concentration. After treatments, cells were lysed in 100 μL of lysis buffer (25 mM Tris-phosphate, pH 7.8; 2 mM DTT; 10% glycerol; 1% Triton X-100), and 20 μL of cellular lysate was assayed for luciferase activity using the luciferase assay system. Luminescence was measured using Glomax 20/20 luminometer. Luciferase activities were normalized against Renilla activities. Antagonism against FXR of GPBAR1/TGR5 was measured as percent of activity in transactivation assay suing activity of TLCA as example of agonism.
In general terms: A reporter such as luciferase makes a cellular process visible.

In experiment [2] the target is T2, FXR (Homo sapiens, UniProt Q96RI1).
T2 construct: expressed in transfected cells; host or cells: HepG2
T2 sequence (Q96RI1 1-486): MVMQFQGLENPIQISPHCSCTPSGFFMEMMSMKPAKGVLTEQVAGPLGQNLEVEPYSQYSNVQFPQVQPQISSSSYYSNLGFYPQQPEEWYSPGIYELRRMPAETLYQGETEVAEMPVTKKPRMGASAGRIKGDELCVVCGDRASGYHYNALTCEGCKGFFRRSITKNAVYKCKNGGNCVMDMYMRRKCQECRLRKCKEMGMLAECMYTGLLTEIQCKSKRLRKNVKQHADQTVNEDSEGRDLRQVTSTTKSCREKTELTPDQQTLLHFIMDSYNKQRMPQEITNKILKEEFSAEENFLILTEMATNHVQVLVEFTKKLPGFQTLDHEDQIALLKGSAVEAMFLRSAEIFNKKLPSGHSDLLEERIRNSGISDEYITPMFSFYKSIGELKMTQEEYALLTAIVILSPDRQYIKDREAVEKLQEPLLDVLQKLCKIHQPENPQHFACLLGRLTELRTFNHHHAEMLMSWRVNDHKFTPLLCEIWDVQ
T2 sequence (P19793 1-462 partner): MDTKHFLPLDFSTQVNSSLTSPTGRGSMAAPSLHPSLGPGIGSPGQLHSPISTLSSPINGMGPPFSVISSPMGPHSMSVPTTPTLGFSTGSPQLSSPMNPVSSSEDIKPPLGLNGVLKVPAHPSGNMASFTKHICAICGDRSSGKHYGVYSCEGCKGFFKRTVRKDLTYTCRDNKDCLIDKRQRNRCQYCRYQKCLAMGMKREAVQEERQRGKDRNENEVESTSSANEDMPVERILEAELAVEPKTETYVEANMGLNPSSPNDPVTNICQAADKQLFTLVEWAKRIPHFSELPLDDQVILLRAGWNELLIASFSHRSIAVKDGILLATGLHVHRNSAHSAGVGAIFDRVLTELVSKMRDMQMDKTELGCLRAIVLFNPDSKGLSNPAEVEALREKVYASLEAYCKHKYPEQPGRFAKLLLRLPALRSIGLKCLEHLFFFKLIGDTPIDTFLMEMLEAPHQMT
Nature of the experiment: FXR mediated transactivation (luciferase reporter) in transfected HepG2 cells. Format: cell-based. The following applies: each compound at 10 microM, transactivation activity of CDCA on FXR = 100%. As to the method:
as §1, §2, §3

In the case of `CC[C@H]1[C@@H](O)[C@@H]2[C@H](CC[C@]3(C)[C@@H]([C@H](C)CCCO)CC[C@@H]23)[C@@]2(C)CC[C@H](O)C[C@@H]12` [BAR706, 6α-ethyl-3β,7α-dihydroxy-5β-cholan-24-ol], the “GPBAR1 (% of activity in comparison to 10 μM TLCA)” value in experiment [1] came out at 66.05 ± 7.6%. In experiment [2], the “FXR (% of activity in comparison to 10 μM CDCA)” value is 153 ± 9.0%.
The corresponding values for `CC[C@H]1[C@@H](O)C2C3CC[C@H]([C@H](C)CC#N)[C@@]3(C)CCC2[C@@]2(C)CC[C@@H](O)C[C@@H]12` (stereo partly drawn) [BAR506, 6α-ethyl-3α,7α-dihydroxy-24-nor-5β-cholan-23-nitrile] are 80.9 ± 9.5% and 411.5 ± 36.5%.
The corresponding values for `CC[C@H]1[C@H](O)[C@@H]2[C@H](CC[C@]3(C)[C@@H]([C@H](C)CCCO)CC[C@@H]23)[C@@]2(C)CC[C@H](O)C[C@@H]12` [BAR707, 6α-ethyl-3β,7β-dihydroxy-5β-cholan-24-ol] are 65 ± 6.0% and 92.5 ± 7.5%.
On the same counts, the results for `CC[C@H]1[C@@H](O)C2C3CC[C@H]([C@H](C)CC(=O)O)[C@@]3(C)CCC2[C@@]2(C)CCCC[C@@H]12` (stereo partly drawn) [BARn704, 6α-ethyl-7α-hydroxy-24-nor-5β-cholan-23-oic acid] are 64 ± 2.0% and 202.5 ± 1.5%.
With `CC[C@H]1[C@@H](O)[C@@H]2[C@H](CC[C@]3(C)[C@@H]([C@H](C)CCCO)CC[C@@H]23)[C@@]2(C)CCCC[C@@H]12` [BAR701, 6α-ethyl-7α-hydroxy-5β-cholan-24-ol], the “GPBAR1 (% of activity in comparison to 10 μM TLCA)” value in experiment [1] is given as 50.2 ± 2.3%. Also, in experiment [2], the “FXR (% of activity in comparison to 10 μM CDCA)” value is 101.3 ± 10.1%.
As for `C[C@H](CCO)[C@H]1CCC2C3C(CC[C@@]21C)[C@@]1(C)CC[C@@H](O)C[C@H]1C[C@@H]3O` (stereo partly drawn) [BAR107, 3α,7β-dihydroxy-24-nor-5β-cholan-23-ol], the “GPBAR1 (% of activity in comparison to 10 μM TLCA)” value in experiment [1] is reported as 9.9 ± 1.7%. For the same molecule, the “FXR (% of activity in comparison to 10 μM CDCA)” value in experiment [2] is recorded as 1.8 ± 0.3%.
Regarding `CC[C@H]1[C@@H](O)C2C3CC[C@H]([C@H](C)CCOS(=O)(=O)O)[C@@]3(C)CCC2[C@@]2(C)CC[C@H](O)C[C@@H]12` (stereo partly drawn) [BARn706solf, 6α-ethyl-3β,7α-dihydroxy-24-nor-5β-cholan-23-yl 23-sodium sulfate], the “GPBAR1 (% of activity in comparison to 10 μM TLCA)” value in experiment [1] was determined as 71.5 ± 0.5%.
With `CC[C@H]1[C@@H](O)C2C3CC[C@H]([C@H](C)CC(=O)O)[C@@]3(C)CCC2[C@@]2(C)CC[C@H](O)C[C@@H]12` (stereo partly drawn) [BARn710, 6α-ethyl-3β,7α-dihydroxy-24-nor-5β-cholan-23-oic acid], the “GPBAR1 (% of activity in comparison to 10 μM TLCA)” value in experiment [1] is recorded as 75 ± 8.0%. The “FXR (% of activity in comparison to 10 μM CDCA)” value in experiment [2] came to 142 ± 1.0%.
The corresponding values for `CC=C1[C@H](O)[C@@H]2[C@H](CC[C@]3(C)[C@@H]([C@H](C)CCCO)CC[C@@H]23)[C@@]2(C)CC[C@@H](O)C[C@@H]12` [BAR503, 6-ethylidene-3α,7β-dihydroxy-5β-cholan-24-ol] are 59.8 ± 0.1% and 68.8 ± 26.6%.
On the same counts, the results for `C[C@H](CCCOS(=O)(=O)O)[C@H]1CCC2C3C(CC[C@@]21C)[C@@]1(C)CCCC[C@H]1C[C@H]3O` (stereo partly drawn) [BAR402, 7α-hydroxy-5β-cholan-24-yl-24-sodium sulfate] are 28.0 ± 1.8% and 336.4 ± 20.8%.
On the same counts, the results for `CC[C@@H]1[C@@H](O)[C@@H]2[C@H](CC[C@]3(C)[C@@H]([C@H](C)CCCO)CC[C@@H]23)[C@@]2(C)CC[C@H](O)C[C@@H]12` [BAR709, 6β-ethyl-3β,7α-dihydroxy-5β-cholan-24-ol] are 54.2 ± 0.3% and 33.7 ± 2.0%.
Regarding `CC[C@H]1[C@@H](O)[C@@H]2[C@H](CC[C@]3(C)[C@@H]([C@H](C)CCCOS(=O)(=O)[O-])CC[C@@H]23)[C@@]2(C)CCCC[C@@H]12.[Na+]` [BAR701solf, 6α-ethyl-7α-hydroxy-5β-cholan-24-yl 24-sodium sulfate], the “GPBAR1 (% of activity in comparison to 10 μM TLCA)” value in experiment [1] is given as 63.5 ± 0.5%. Moreover, the “FXR (% of activity in comparison to 10 μM CDCA)” value in experiment [2] amounted to 229 ± 2.0%.
`CC[C@@H]1[C@H](O)C2C3CC[C@H]([C@H](C)CCO)[C@@]3(C)CCC2[C@@]2(C)CC[C@@H](O)C[C@@H]12` (stereo partly drawn) [BARn501, 6β-ethyl-3α, 7β-dihydroxy-24-nor-5β-cholan-23-ol]: in experiment [1], the “GPBAR1 (% of activity in comparison to 10 μM TLCA)” value was 83.1 ± 7.4%. Also, the “FXR (% of activity in comparison to 10 μM CDCA)” value in experiment [2] was determined as 8.5 ± 1.4%.
The corresponding values for `CC[C@@H]1[C@H](O)[C@@H]2[C@H](CC[C@]3(C)[C@@H]([C@H](C)CCCO)CC[C@@H]23)[C@@]2(C)CCCC[C@@H]12` [BAR702, 6β-ethyl-7β-hydroxy-5β-cholan-24-ol] are 35.8 ± 1.2% and 11.7 ± 0.8%.
On the same counts, the results for `CC[C@@H]1[C@H](O)[C@@H]2[C@H](CC[C@]3(C)[C@@H]([C@H](C)CCCO)CC[C@@H]23)[C@@]2(C)CC[C@H](O)C[C@@H]12` [BAR708, 6β-ethyl-3β,7β-dihydroxy-5β-cholan-24-ol] are 57.6 ± 4.6% and 6.4 ± 0.8%.
For `C[C@H](CCCCC(=O)O)[C@H]1CCC2C3C(CC[C@@]21C)[C@@]1(C)CC[C@@H](O)C[C@H]1C[C@@H]3O` (stereo partly drawn) [BAR305, 3α, 7β-dihydroxy-25, 26-bishomo-5β-cholan-26-oic acid], the “GPBAR1 (% of activity in comparison to 10 μM TLCA)” value in experiment [1] was found to be 23.9 ± 4.0%. In experiment [2], the “FXR (% of activity in comparison to 10 μM CDCA)” value turned out to be 0%.
The corresponding values for `C[C@H](CCCCCO)[C@H]1CCC2C3C(CC[C@@]21C)[C@@]1(C)CC[C@@H](O)C[C@H]1C[C@@H]3O` (stereo partly drawn) [BAR304, 25, 26-bishomo-5β-cholan-3α, 7β, 26-triol] are 55.1 ± 12.5% and 0%.
For the molecule `CC[C@H]1[C@@H](O)C2C3CC[C@H]([C@H](C)CCCO)[C@@]3(C)CCC2[C@@]2(C)CC[C@@H](O)C[C@@H]12` (stereo partly shown) [BAR504], the “GPBAR1 (% of activity in comparison to 10 μM TLCA)” value in experiment [1] stood at 103.0 ± 12.1%. Further, the “FXR (% of activity in comparison to 10 μM CDCA)” value in experiment [2] came out at 488.5 ± 17.5%.
The corresponding values for `CC[C@H]1[C@@H](O)C2C3CC[C@H]([C@H](C)CCCCCO)[C@@]3(C)CCC2[C@@]2(C)CC[C@@H](O)C[C@@H]12` (stereo partly drawn) [BAR803, 6α-ethyl-3α, 7α-dihydroxy-25, 26-bishomo-5β-cholan-26-ol] are 80.5 ± 5.0% and 122.5 ± 5.5%.
